Data from patent publication US8022209B2, “Substituted nitrogen-containing heteroaryl derivatives useful as modulators of the histamine H4 receptor” (Janssen Pharmaceutica NV, priority 2007, dated 2011).

Target: T1, human histamine H4 receptor (Homo sapiens, UniProt Q9H3N8)
T1 construct: expressed in transfected cells; host or cells: SK-N-MC cells or COS7 cells, transiently transfected with pH4R; cell membranes
Experiment: Binding Assay on Recombinant Human Histamine H4 Receptor
Details: competition binding vs 3H-histamine (5 nM, KD 5 nM), membranes of SK-N-MC or COS7 cells transfected with human H4R; Cheng-Prusoff; average of results obtained
Procedure: Binding Assay on Recombinant Human Histamine H4 Receptor
SK-N-MC cells or COS7 cells were transiently transfected with pH4R and grown in 150 cm^2 tissue culture dishes. Cells were washed with saline solution, scraped with a cell scraper and collected by centrifugation (1000 rpm, 5 min). Cell membranes were prepared by homogenization of the cell pellet in 20 mM Tris-HCl with a polytron tissue homogenizer for 10 sec at high speed. Homogenate was centrifuged at 1000 rpm for 5 min at 4° C. The supernatant was then collected and centrifuged at 20,000×g for 25 min at 4° C. The final pellet was resuspended in 50 mM Tris-HCl. Cell membranes were incubated with ^3H-histamine (5-70 nM) in the presence or absence of excess histamine (10,000 nM). Incubation occurred at room temperature for 45 min. Membranes were harvested by rapid filtration over Whatman GF/C filters and washed 4 times with ice-cold 50 mM Tris HCl. Filters were then dried, mixed with scintillant and counted for radioactivity. SK-N-MC or COS7 cells expressing human histamine H4 receptor were used to measure the affinity of binding of other compounds and their ability to displace ^3H-ligand binding by incubating the above-described reaction in the presence of various concentrations of inhibitor or compound to be tested. For competition binding studies using ^3H-histamine, Ki values were calculated, based on an experimentally determined KD value of 5 nM and a ligand concentration of 5 nM, according to Y. C.

T1 sequence (Q9H3N8 whole entry): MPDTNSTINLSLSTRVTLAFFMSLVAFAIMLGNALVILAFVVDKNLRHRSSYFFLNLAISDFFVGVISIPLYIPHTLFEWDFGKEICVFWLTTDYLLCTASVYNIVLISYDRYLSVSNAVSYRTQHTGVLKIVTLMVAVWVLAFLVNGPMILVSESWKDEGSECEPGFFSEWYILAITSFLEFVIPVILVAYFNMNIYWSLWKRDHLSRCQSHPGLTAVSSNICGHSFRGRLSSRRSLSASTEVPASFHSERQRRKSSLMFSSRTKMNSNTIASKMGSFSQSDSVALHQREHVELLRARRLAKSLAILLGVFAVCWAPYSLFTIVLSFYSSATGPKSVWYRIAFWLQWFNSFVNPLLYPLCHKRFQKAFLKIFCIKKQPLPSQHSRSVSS

Structure (SMILES) | Ki [nM]
CN1CCN(c2ccnc(-c3ccsc3)c2)CC1 [compound 26] | 37
CN1CCN(c2ncnc(-c3ccc4ccccc4c3)n2)CC1 [compound 117, 2-(4-Methyl-piperazin-1-yl)-4-naphthalen-2-yl-[1,3,5]triazine] | > 10000
Cc1cc(-c2ncnc(N3CCN(C)CC3)n2)ccc1F [compound 115, 2-(4-Fluoro-3-methyl-phenyl)-4-(4-methyl-piperazin-1-yl)-[1,3,5]triazine] | 111
CN1CCN(c2ncnc(-c3ccc(F)cc3)n2)CC1 [compound 12, 2-(4-Fluoro-phenyl)-4-(4-methyl-piperazin-1-yl)-[1,3,5]triazine] | 35
CN1CCN(c2ncnc(-c3ccccn3)n2)CC1 [compound 139, 2-(4-Methyl-piperazin-1-yl)-4-pyridin-2-yl-[1,3,5]triazine] | 857
CN1CCN(c2ncnc(-c3cccs3)n2)CC1 [compound 2, 2-(4-Methyl-piperazin-1-yl)-4-thiophen-2-yl-[1,3,5]triazine] | 76
CN1CCN(c2ncnc(-c3cc(Cl)cs3)n2)CC1 [compound 151, 2-(4-Chloro-thiophen-2-yl)-4-(4-methyl-piperazin-1-yl)-[1,3,5]triazine] | 137
CN1CCN(c2ccnc(-c3cccc(Cl)c3Cl)c2)CC1 [compound 35] | 130
CN1CCCN(c2cc(-c3cccs3)ncn2)CC1 [compound 68] | 397
CN1CCN(c2ncnc(-c3ccoc3)n2)CC1 [compound 6, 2-Furan-3-yl-4-(4-methyl-piperazin-1-yl)-[1,3,5]triazine] | 115
CN1CCN(c2ccnc(-c3ccc(F)c(F)c3)c2)CC1 [compound 34] | 90
CN1CCN(c2ncnc(-c3cccc(C#N)c3)n2)CC1 [compound 111, 3-[4-(4-Methyl-piperazin-1-yl)-[1,3,5]triazin-2-yl]-benzonitrile] | 2010
Cc1ccc(-c2ncnc(N3CCN(C)CC3)n2)cc1 [compound 4, 2-(4-Methyl-piperazin-1-yl)-4-p-tolyl-[1,3,5]triazine] | 75
Cc1ccc(-c2cc(N3CCN(C)CC3)ccn2)cc1F [compound 31] | 75
CN1CCN(c2ncnc(-c3ccc(F)cc3F)n2)CC1 [compound 122, 2-(2,4-Difluoro-phenyl)-4-(4-methyl-piperazin-1-yl)-[1,3,5]triazine] | 94
CN1CCN(c2ncnc(-c3ccsc3)n2)CC1 [compound 1, 2-(4-Methyl-piperazin-1-yl)-4-thiophen-3-yl-[1,3,5]triazine] | 44
CN(C)C1CCN(c2ccnc(-c3ccsc3)c2)C1 (centres unmarked) [compound 42] | 767
CN1CCN(c2ncnc(-c3cccnc3)n2)CC1 [compound 19, 2-(4-Methyl-piperazin-1-yl)-4-pyridin-3-yl-[1,3,5]triazine] | 172
CN1CCN(c2ncnc(-c3sccc3Br)n2)CC1 [compound 15, 2-(3-Bromo-thiophen-2-yl)-4-(4-methyl-piperazin-1-yl)-[1,3,5]triazine] | 2

Structure (SMILES) | Ki [nM]
Cc1cscc1-c1cc(N2CCN(C)CC2)ccn1 [compound 29] | 64
CN1CCN(c2ccnc(-c3cccc(-c4ccc(C(=O)N5CCOCC5)cc4)c3)c2)CC1 [compound 63] | ≥ 10000
CN1CCN(c2ncnc(-c3cc(F)c(F)c(F)c3)n2)CC1 [compound 11, 2-(4-Methyl-piperazin-1-yl)-4-(3,4,5-trifluoro-phenyl)-[1,3,5]triazine] | 7
CN1CCN(c2ccnc(-c3cccc(O)c3)c2)CC1 [compound 33] | 577
Cc1ccc(-c2cc(N3CCN(C)CC3)ccn2)cc1 [compound 32] | 129
CN1CCN(c2ccnc(-c3cccc(-c4ccccc4)c3)c2)CC1 [compound 38] | 52
CN1CCCN(c2ccnc(-c3ccsc3)c2)CC1 [compound 39] | 433
CN1CCN(c2ccnc(-c3ccc(F)c(Cl)c3)c2)CC1 [compound 30] | 138
Cc1cc(-c2ncnc(N3CCN(C)CC3)n2)c(C(F)(F)F)o1 [compound 22, 2-(4-Methyl-piperazin-1-yl)-4-(5-methyl-2-trifluoromethyl-furan-3-yl)-[1,3,5]triazine] | 757
CNC1CCN(c2ccnc(-c3ccsc3)c2)C1 (centres unmarked) [compound 66] | 216
CN1CCN(c2ncnc(-c3ccncc3)n2)CC1 [compound 20, 2-(4-Methyl-piperazin-1-yl)-4-pyridin-4-yl-[1,3,5]triazine] | 950
CN1CCN(c2ccnc(-c3ccc(-c4cccs4)s3)c2)CC1 [compound 145] | 268
CN1CCN(c2ncnc(-c3ccc(-c4ccccn4)s3)n2)CC1 [compound 131, 2-(4-Methyl-piperazin-1-yl)-4-(5-pyridin-2-yl-thiophen-2-yl)-[1,3,5]triazine] | > 10000
Cc1ccsc1-c1ncnc(N2CCN(C)CC2)n1 [compound 140, 2-(4-Methyl-piperazin-1-yl)-4-(3-methyl-thiophen-2-yl)-[1,3,5]triazine] | 52
Cc1ccc(-c2cc(N3CCN(C)CC3)ccn2)cc1Cl [compound 37] | 65
CN1CCN(c2ncnc(-c3cc4ccccc4s3)n2)CC1 [compound 21, 2-Benzo[b]thiophen-2-yl-4-(4-methyl-piperazin-1-yl)-[1,3,5]triazine] | 2330
CN1CCC(N(C)c2ccnc(-c3ccsc3)c2)C1 (centres unmarked) [compound 40] | 867
CN1CCN(c2ccnc(-c3sccc3Cl)c2)CC1 [compound 148] | 107
CN1CCN(c2ncnc(-c3csc4ccccc34)n2)CC1 [compound 144, 2-Benzo[b]thiophen-3-yl-4-(4-methyl-piperazin-1-yl)-[1,3,5]triazine] | 347

Structure (SMILES) | Ki [nM]
CN(C)CCN(C)c1ccnc(-c2ccsc2)c1 [compound 41] | 2600
CN1CCN(c2ncnc(-c3ccc(Cl)nc3)n2)CC1 [compound 16, 2-(6-Chloro-pyridin-3-yl)-4-(4-methyl-piperazin-1-yl)-[1,3,5]triazine] | 50
CN1CCN(c2ncnc(-c3sccc3Cl)n2)CC1 [compound 17, 2-(3-Chloro-thiophen-2-yl)-4-(4-methyl-piperazin-1-yl)-[1,3,5]triazine] | 8
CN1CCN(c2ncnc(-c3cc(Cl)sc3Cl)n2)CC1 [compound 143, 2-(2,5-Dichloro-thiophen-3-yl)-4-(4-methyl-piperazin-1-yl)-[1,3,5]triazine] | 193
CN1CCN(c2ncnc(-c3ccc(Cl)s3)n2)CC1 [compound 25, 2-(5-Chloro-thiophen-2-yl)-4-(4-methyl-piperazin-1-yl)-[1,3,5]triazine] | 66
CN1CCCN(c2ncnc(-c3sccc3Br)n2)CC1 [compound 24, 1-[4-(3-Bromo-thiophen-2-yl)-[1,3,5]triazin-2-yl]-4-methyl-[1,4]diazepane] | 267
CN1CCN(c2ncnc(-c3cccc(F)c3)n2)CC1 [compound 7, 2-(3-Fluoro-phenyl)-4-(4-methyl-piperazin-1-yl)-[1,3,5]triazine] | 87
CN1CCN(c2ncnc(-c3cccc(C(F)(F)F)c3)n2)CC1 [compound 8, 2-(4-Methyl-piperazin-1-yl)-4-(3-trifluoromethyl-phenyl)-[1,3,5]triazine] | 73
Cc1nc(-c2cc(F)c(F)c(F)c2)nc(N2CCN(C)CC2)n1 [compound 147, 2-Methyl-4-(4-methyl-piperazin-1-yl)-6-(3,4,5-trifluoro-phenyl)-[1,3,5]triazine] | 193
CN1CCN(c2ncnc(-c3ccc(Br)s3)n2)CC1 [compound 18, 2-(5-Bromo-thiophen-2-yl)-4-(4-methyl-piperazin-1-yl)-[1,3,5]triazine] | 37
CN1CCN(c2ncnc(-c3ccc(F)c(F)c3)n2)CC1 [compound 5, 2-(3,4-Difluoro-phenyl)-4-(4-methyl-piperazin-1-yl)-[1,3,5]triazine] | 33
CN1CCN(c2ncnc(-c3ccc([N+](=O)[O-])cc3)n2)CC1 [compound 121, 2-(4-Methyl-piperazin-1-yl)-4-(4-nitro-phenyl)-[1,3,5]triazine] | 107
CN1CCN(c2ncnc(-c3cc(Br)cs3)n2)CC1 [compound 9] | 22
CN1CCN(c2ccnc(-c3csc(C#N)c3)c2)CC1 [compound 129] | 443
CN1CCN(c2ncnc(-c3ccc(-c4ccccc4)cc3)n2)CC1 [compound 116, 2-Biphenyl-4-yl-4-(4-methyl-piperazin-1-yl)-[1,3,5]triazine] | > 10000
CN1CCN(c2ncnc(-c3ccc(F)cc3Cl)n2)CC1 [compound 138, 2-(2-Chloro-4-fluoro-phenyl)-4-(4-methyl-piperazin-1-yl)-[1,3,5]triazine] | 99
Cc1ccc(-c2ncnc(N3CCN(C)CC3)n2)cc1F [compound 3, 2-(3-Fluoro-4-methyl-phenyl)-4-(4-methyl-piperazin-1-yl)-[1,3,5]triazine] | 22
CN1CCN(c2ncnc(-c3cccc4ccccc34)n2)CC1 [compound 112, 2-(4-Methyl-piperazin-1-yl)-4-naphthalen-1-yl-[1,3,5]triazine] | 1510
